Measured values: US20070043024A1, “Azacyclic compounds as inhibitors of sensory neurone specific channels” (priority 2003, published 2007)

target: T1, human Nav1.8 (hNav1.8) ion channel (Homo sapiens, UniProt Q9Y5Y9); experiment: Inhibition of human Nav1.8 stably expressed in SH-SY-5Y cells (membrane potential dye fluorescence assay); type: cell-based; settings: Table 2 (compound numbers of the list in the description); SH-SY-5Y hNav1.8 cells, inhibition of membrane depolarisation, FLIPR membrane potential dye, 250 nM TTX, test concentration range 100 μM-0.05 μM; read-out: IC50
T1 construct: expressed in transfected cells
Protocol: Inhibition of Human Nav1.8 Stably Expressed in SH-SY-5Y Cells
A SH-SY-5Y neuroblastoma cell line stably expressing the human […] (hNav1.8) ion channel was constructed. This cell line has been used to develop a medium to high throughput assay for determining the ability of test compounds to inhibit membrane depolarisation mediated via the hNav1.8 channel.
SH-SY-5Y hNav1.8 are grown in adherent monolayer culture using 50:50 Ham's F-12/EMEM tissue culture medium supplemented with 15% (v/v) foetal bovine serum; 2 mM L-glutamine, 1% NEAA and 600 μg·ml^−1 Geneticin sulphate. Cells are removed from the tissue culture flask using trypsin/EDTA and re-plated into black walled, clear bottom 96-well assay plates at 50,000 cells·well^−1 24 hours prior to assay.
On the day of assay the cell assay plates are washed to remove cell culture medium using a sodium free assay buffer (145 mM tetramethyl ammonium chloride; 2 mM calcium chloride; 0.8 mM magnesium chloride hexahydrate; 10 mM HEPES; 10 mM glucose; 5 mM potassium chloride, pH 7.4). Fluorescent membrane potential dye solution (FLIPR™ membrane potential dye, Molecular Devices Corporation), containing 10 μM of a pyrethroid to prevent channel inactivation and 250 nM tetrodotoxin (TTX) to reduce interference from TTX-sensitive sodium channels present in the cell line. Test compound, initially dissolved in dimethyl sulfoxide but further diluted in sodium free buffer, is added to achieve the final test concentration range of 100 μM-0.05 μM.
Cell plates are incubated for 30 minutes at room temperature to allow equilibration of dye and test compound. Plates are then transferred to a fluorescence plate reader for fluorescence measurement using an excitation wavelength of 530 nm whilst measuring fluorescence emission at 565 nm. Baseline fluorescence levels are first determined before the addition of a sodium containing buffer (220 mM sodium chloride; 2 mM calcium chloride; 0.8 mM magnesium chloride hexahydrate; […]; 10 mM glucose; 5 mM potassium chloride. pH 7.4) to cause membrane depolarisation in those cells where channel block has not been effected (final sodium concentration=72.5 mM). Membrane depolarisation is registered by an increase in fluorescence emission at 565 nm.
The change in fluorescence seen in each test well upon the addition of sodium containing buffer is calculated relative to the baseline fluorescence for that well. This figure is then used for calculating the IC50 for each test compound.

T1 sequence (Q9Y5Y9 whole entry): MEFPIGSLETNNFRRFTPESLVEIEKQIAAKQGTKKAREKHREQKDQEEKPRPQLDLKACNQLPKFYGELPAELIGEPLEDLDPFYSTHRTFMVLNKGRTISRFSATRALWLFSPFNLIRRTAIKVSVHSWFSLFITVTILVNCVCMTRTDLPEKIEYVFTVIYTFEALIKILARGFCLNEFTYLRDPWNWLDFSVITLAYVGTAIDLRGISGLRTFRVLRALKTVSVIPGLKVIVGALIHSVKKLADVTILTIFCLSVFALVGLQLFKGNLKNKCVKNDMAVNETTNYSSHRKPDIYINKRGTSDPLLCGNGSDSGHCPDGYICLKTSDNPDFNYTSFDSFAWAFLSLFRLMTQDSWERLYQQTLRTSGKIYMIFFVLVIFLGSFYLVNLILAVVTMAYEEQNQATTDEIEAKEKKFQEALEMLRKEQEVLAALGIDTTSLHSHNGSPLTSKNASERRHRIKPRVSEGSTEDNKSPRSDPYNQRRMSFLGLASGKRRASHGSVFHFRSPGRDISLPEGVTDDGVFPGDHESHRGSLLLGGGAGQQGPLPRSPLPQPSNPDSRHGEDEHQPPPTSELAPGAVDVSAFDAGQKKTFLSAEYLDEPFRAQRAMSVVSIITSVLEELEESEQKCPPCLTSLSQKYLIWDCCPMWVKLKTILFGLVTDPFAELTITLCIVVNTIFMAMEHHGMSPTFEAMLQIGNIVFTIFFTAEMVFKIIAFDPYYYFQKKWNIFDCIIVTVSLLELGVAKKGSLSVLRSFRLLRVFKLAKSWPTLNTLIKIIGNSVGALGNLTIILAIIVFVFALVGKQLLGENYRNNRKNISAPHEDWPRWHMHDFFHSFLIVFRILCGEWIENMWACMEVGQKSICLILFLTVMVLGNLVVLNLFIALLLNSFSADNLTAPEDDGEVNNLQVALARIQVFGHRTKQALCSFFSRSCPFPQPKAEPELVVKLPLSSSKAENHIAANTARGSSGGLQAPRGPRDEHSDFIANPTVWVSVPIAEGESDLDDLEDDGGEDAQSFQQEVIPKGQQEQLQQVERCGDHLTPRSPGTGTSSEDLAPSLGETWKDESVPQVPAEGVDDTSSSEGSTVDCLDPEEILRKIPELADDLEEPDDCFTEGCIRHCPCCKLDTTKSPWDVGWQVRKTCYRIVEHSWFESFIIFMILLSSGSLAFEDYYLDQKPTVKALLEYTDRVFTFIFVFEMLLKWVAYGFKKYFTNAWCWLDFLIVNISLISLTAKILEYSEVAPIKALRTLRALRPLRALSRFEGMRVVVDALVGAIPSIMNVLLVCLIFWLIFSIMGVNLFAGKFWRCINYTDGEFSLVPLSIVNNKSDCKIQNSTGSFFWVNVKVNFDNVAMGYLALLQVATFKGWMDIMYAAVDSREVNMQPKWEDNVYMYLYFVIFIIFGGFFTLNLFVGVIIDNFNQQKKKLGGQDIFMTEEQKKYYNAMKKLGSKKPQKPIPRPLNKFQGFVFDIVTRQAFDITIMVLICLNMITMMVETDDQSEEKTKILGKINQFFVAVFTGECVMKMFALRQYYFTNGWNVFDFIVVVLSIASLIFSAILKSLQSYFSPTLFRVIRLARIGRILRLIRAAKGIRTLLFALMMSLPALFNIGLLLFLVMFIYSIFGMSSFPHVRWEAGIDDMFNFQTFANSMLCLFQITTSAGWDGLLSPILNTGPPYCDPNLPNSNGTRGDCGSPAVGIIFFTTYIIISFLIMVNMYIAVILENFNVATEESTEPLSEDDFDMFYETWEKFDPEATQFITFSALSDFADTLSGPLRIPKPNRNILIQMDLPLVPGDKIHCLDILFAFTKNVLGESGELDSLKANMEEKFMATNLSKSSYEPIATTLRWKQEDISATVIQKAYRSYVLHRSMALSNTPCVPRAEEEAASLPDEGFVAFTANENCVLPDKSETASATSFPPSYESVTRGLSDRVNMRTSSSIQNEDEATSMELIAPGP

Compared with `CC(=O)Nc1ccc(C(CCNC(=O)CN2CCc3ccccc3C2)c2ccccc2)cc1NC(C)=O` (stereo not shown) [Compound 116, N-[3-(3,4-Bis-acetylamino-phenyl)-3-phenyl-propyl]-2-(3,4-dihydro-1H-isoquinolin-2-yl)-acetamide], `CS(=O)(=O)Nc1cccc2c1CN(CC(=O)NCCCC(c1ccccc1)c1ccccc1)CC2` [Compound 117, N-(4,4-Diphenyl-butyl)-2-(8-methanesulfonylamino-3,4-dihydro-1H-isoquinolin-2-yl)-acetamide] is 16-fold lower in IC50: 22200 nM for the first, 1360 nM for the second.

First: O=C(CN1Cc2ccccc2C1)NC(c1ccc(F)cc1)c1ccc(F)cc1 [Compound 118, N-[Bis-(4-fluoro-phenyl)-methyl]-2-(1,3-dihydro-isoindol-2-yl)-acetamide]
Second: O=C(CN1CCc2ccccc2C1)NC(c1ccc(F)cc1)c1ccc(F)cc1 [Compound 119, N-[Bis-(4-fluoro-phenyl)-methyl]-2-(3,4-dihydro-1H-isoquinolin-2-yl)-acetamide]
The IC50 of the first is 5.3-fold higher: 10200 nM for the first, 1910 nM for the second.

`COc1cccc2c1CN(CC(=O)NC(c1ccc(F)cc1)c1ccc(F)cc1)CC2` [Compound 120, N-[Bis-(4-fluoro-phenyl)-methyl]-2-(8-methoxy-3,4-dihydro-1H-isoquinolin-2-yl)-acetamide] and `COc1cc2c(cc1OC)CN(CC(=O)NC(c1ccc(F)cc1)c1ccc(F)cc1)CC2` [Compound 121, N-[Bis-(4-fluoro-phenyl)-methyl]-2-(6,7-dimethoxy-3,4-dihydro-1H-isoquinolin-2-yl)-acetamide] are within 1.5-fold of each other in IC50: 3340 nM for the first, 3450 nM for the second.

`Nc1cccc2c1CCN(CCC(=O)NCCC(c1ccccc1)c1ccccc1)C2` [Compound 122, 3-(5-Amino-3,4-dihydro-1H-isoquinolin-2-yl)-N-(3,3-diphenyl-propyl)-propionamide] and `Nc1cccc2c1CN(CCC(=O)NCCC(c1ccccc1)c1ccccc1)CC2` [Compound 127, 3-(8-Amino-3,4-dihydro-1H-isoquinolin-2-yl)-N-(3,3-diphenyl-propyl)-propionamide] are within 1.5-fold of each other in IC50: 960 nM for the first, 650 nM for the second.

`Nc1cccc2c1CCN(CC(=O)NCC(c1ccccc1)c1ccccc1)C2` [Compound 123, 2-(5-Amino-3,4-dihydro-1H-isoquinolin-2-yl)-N-(2,2-diphenyl-ethyl)-acetamide] and `COc1cc2c(cc1OC)CN(CC(=O)NCC(c1ccccc1)c1ccccc1)CC2` [Compound 126, 2-(6,7-Dimethoxy-3,4-dihydro-1H-isoquinolin-2-yl)-N-(2,2-diphenyl-ethyl)-acetamide] are within 1.5-fold of each other in IC50: 2890 nM for the first, 1930 nM for the second.

Compared with `COc1cc2c(cc1OC)CN(CC(=O)NCCCC(c1ccccc1)c1ccccc1)CC2` [Compound 124, 2-(Dimethoxy-3,4-dihydro-1H-isoquinolin-2-yl)-N-(4,4-diphenyl-butyl)-acetamide], `COc1cc2c(cc1OC)CN(CCC(=O)NCCC(c1ccccc1)c1ccccc1)CC2` [Compound 125, 3-(6,7-Dimethoxy-3,4-dihydro-1H-isoquinolin-2-yl)-N-(3,3-diphenyl-propyl)-propionamide] is 1.6-fold lower in IC50: 590 nM for the first, 380 nM for the second. The second is the more potent here.

`COc1cccc2c1CN(CC(=O)NCCCn1c3ccccc3c3ccccc31)CC2` [Compound 128, N-(3-Carbazol-9-yl-propyl)-2-(8-methoxy-3,4-dihydro-1H-isoquinolin-2-yl)-acetamide] and `O=C(CN1CCc2cccc(O)c2C1)NCCCn1c2ccccc2c2ccccc21` [Compound 129, N-(3-Carbazol-9-yl-propyl)-2-(8-hydroxy-3,4-dihydro-1H-isoquinolin-2-yl)-acetamide] are within 1.5-fold of each other in IC50: 3510 nM for the first, 2480 nM for the second.

Going from `Cc1cc2cc(Cl)ccc2n1CCCNC(=O)CN1CCc2cccc(O)c2C1` [Compound 131, N-[3-(5-Chloro-2-methyl-indol-1-yl)-propyl]-2-(8-hydroxy-3,4-dihydro-1H-isoquinolin-2-yl)-acetamide] to `O=C(CN1CCc2cccc(O)c2C1)N1c2ccccc2Sc2ccc(Cl)cc21` [Compound 141, 1-(2-Chloro-phenothiazin-10-yl)-2-(8-hydroxy-3,4-dihydro-1H-isoquinolin-2-yl)-ethanone], the IC50 falls from 3610 nM to 1850 nM (2-fold).

Going from `COc1cccc2c1CN(CCNC(=S)NC(c1ccccc1)c1ccccc1)CC2` [Compound 133, 1-Benzhydryl-3-[2-(8-methoxy-3,4-dihydro-1H-isoquinolin-2-yl)-ethyl]-thiourea] to `COc1cccc2c1CN(CCNC(=O)NC(c1ccccc1)c1ccccc1)CC2` [Compound 135, 1-Benzhydryl-3-[2-(8-methoxy-3,4-dihydro-1H-isoquinolin-2-yl)-ethyl]-urea], the IC50 falls from 600 nM to 380 nM (1.6-fold). The second is the more potent here.

First: COc1cc2c(cc1OC)CN(CCNC(=S)NC(c1ccccc1)c1ccccc1)CC2 [Compound 134, 1-Benzhydryl-3-[2-(6,7-dimethoxy-3,4-dihydro-1H-isoquinolin-2-yl)-ethyl]-thiourea]
Second: COc1cc2c(cc1OC)CN(CCNC(=O)NC(c1ccccc1)c1ccccc1)CC2 [Compound 136, 1-Benzhydryl-3-[2-(6,7-dimethoxy-3,4-dihydro-1H-isoquinolin-2-yl)-ethyl]-urea]
The IC50 of the first is 2.7-fold lower: 770 nM for the first, 2110 nM for the second. The first is the more potent here.

`COc1cccc2c1CN(CCNC(=S)NCC(c1ccccc1)c1ccccc1)CC2` [Compound 137, 1-(2,2-Diphenyl-ethyl)-3-[2-(8-methoxy-3,4-dihydro-1H-isoquinolin-2-yl)-ethyl]-thiourea] and `COc1cc2c(cc1OC)CN(CCNC(=S)NCC(c1ccccc1)c1ccccc1)CC2` [Compound 138, 1-[2-(6,7-Dimethoxy-3,4-dihydro-1H-isoquinolin-2-yl)-ethyl]-3-(2,2-diphenyl-ethyl)-thiourea] are within 1.5-fold of each other in IC50: 440 nM for the first, 520 nM for the second.

Compared with `O=C(CN1CCc2cccc(O)c2C1)N1c2ccccc2Sc2ccccc21` [Compound 139, 2-(8-Hydroxy-3,4-dihydro-1H-isoquinolin-2-yl)-1-phenothiazin-10-yl-ethanone], `COc1cccc2c1CN(CC(=O)N1c3ccccc3Sc3ccccc31)CC2` [Compound 140, 2-(8-Methoxy-3,4-dihydro-1H-isoquinolin-2-yl)-1-phenothiazin-10-yl-ethanone] is 1.9-fold higher in IC50: 1250 nM for the first, 2330 nM for the second. The first is the more potent here.

First: COc1cccc2c1CN(CC(=O)N1c3ccccc3Sc3ccc(Cl)cc31)CC2 [Compound 142, 1-(2-Chloro-phenothiazin-10-yl)-2-(8-methoxy-3,4-dihydro-1H-isoquinolin-2-yl)-ethanone]
Second: COc1cccc2c1CN(CC(=O)N1c3ccccc3Sc3ccc(C(C)=O)cc31)CC2 [Compound 148, 1-(2-Acetyl-phenothiazin-10-yl)-2-(8-methoxy-3,4-dihydro-1H-isoquinolin-2-yl)-ethanone]
The IC50 of the first is 2.5-fold lower: 2090 nM for the first, 5170 nM for the second. The first is the more potent here.

First: COc1cccc2c1CN(CC(=O)N1c3ccccc3[S+]([O-])c3ccccc31)CC2 [Compound 143, 2-(8-Methoxy-3,4-dihydro-1H-isoquinolin-2-yl)-1-(5-oxo-5H-5lambda*4*-phenothiazin-10-yl)-ethanone]
Second: O=C(CN1CCc2cccc(O)c2C1)N1c2ccccc2Oc2ccccc21 [Compound 144, 2-(8-Hydroxy-3,4-dihydro-1H-isoquinolin-2-yl)-1-phenoxazin-10-yl-ethanone]
The IC50 of the first is 19-fold higher: 9590 nM for the first, 500 nM for the second. The second is the more potent here.

`O=C(CN1CCc2cccc(O)c2C1)N1c2ccccc2Sc2ccc(C(F)(F)F)cc21` [Compound 145, 2-(8-Hydroxy-3,4-dihydro-1H-isoquinolin-2-yl)-1-(2-trifluoromethyl-phenothiazin-10-yl)-ethanone] and `CC(=O)c1ccc2c(c1)N(C(=O)CN1CCc3cccc(O)c3C1)c1ccccc1S2` [Compound 147, 1-(2-Acetyl-phenothiazin-10-yl)-2-(8-hydroxy-3,4-dihydro-1H-isoquinolin-2-yl)-ethanone] are within 1.5-fold of each other in IC50: 2630 nM for the first, 2040 nM for the second.

Compared with `O=C(CN1CCc2cccc(O)c2C1)N(c1ccccc1)c1ccccc1` [Compound 149, 2-(8-Hydroxy-3,4-dihydro-1H-isoquinolin-2-yl)-N,N-diphenyl-acetamide], `COc1cccc2c1CN(CC(=O)N(c1ccccc1)c1ccccc1)CC2` [Compound 150, 2-(8-Methoxy-3,4-dihydro-1H-isoquinolin-2-yl)-N,N-diphenyl-acetamide] is 5.1-fold lower in IC50: 9090 nM for the first, 1790 nM for the second.

Going from `COc1cc2c(cc1OC)CN(CC(=O)N1c3ccccc3S(=O)(=O)c3ccccc31)CC2` [Compound 151, 2-(6,7-Dimethoxy-3,4-dihydro-1H-isoquinolin-2-yl)-1-(5,5-dioxo-5H-5lambda*6*-phenothiazin-10-yl)-ethanone] to `COc1cc2c(cc1OC)CN(CC(=O)N1c3ccccc3Sc3ccccc31)CC2` [Compound 152, 2-(6,7-Dimethoxy-3,4-dihydro-1H-isoquinolin-2-yl)-1-phenothiazin-10-yl-ethanone], the IC50 falls from 7440 nM to 3030 nM (2.5-fold). The second is the more potent here.
